Patent US5985824A, “Methods and compositions for treating cystic fibrosis” (priority 1997, dated 1999)
Entries after “also recorded” stand apart in the source; their conditions may differ.

Legend:
ΔF508-CFTR (IBE-1 cells) [1] = assay: whole cell patch-clamp analysis of IBE-1 cells; type: cell-based, human; conditions: 200 μM extracellular DPC, n=4, DSG-treated IBE-1 cells
Description: The bath (extracellular) solution contained: 140 mM N-methyl-Dglucamine (NMDG), 2 mM CaCl2, 1 mM MgCl2, 0.1 mM CdCl2, 10 mM HEPES, 4 mM CsCl, and 10 mM glucose, pH 7.4. These solutions were designed so as to study only currents flowing through Cl^- channels, since Cl^- was the only significant permeant ion in the solutions. Furthermore, Ca^2+ -activated Cl^- currents were minimized by inclusion of 10 mM EGTA in the intracellular solution and 100 μM of Cd^2+ in the extracellular bath. K^+ currents were minimized by including 20 mM TEA in the intracellular solution. Aspartate was used as the replacement anion in experiments in which extracellular Cl^- concentration was changed. Forskolin (10 μM), IBMX (100 μM), 8-(4-chlorophenylthio)-cAMP (cpt-cAMP, 200 μM), diphenylamine carboxylic acid (DPC, 200 μM), UTP (100 μM), and ionomycin (1 μM) were added to the bath solutions as indicated. Current recordings were made from the same cells before, during, and after exposure to the solutions containing the different agonists or inhibitors. All experiments were performed at room temperature (22° C.). Currents were filtered at 2 kHz. Data acquisition and analysis were performed using the PCLAMP 5.5.1 software (Axon Instruments, Foster City, Calif.).
In all of the successfully patched CF IBE-1 cells from 6 separate coverslips no activation of whole cell currents in response to forskolin (10 μM) plus IBMX (100 μM) or cpt-cAMP (200 μM) was detected (FIG. 10A and 10B), indicating no endogenous CFTR channel activity in these cells. In contrast, in 7 out of 19 successful patched cells from 19 separate coverslips treated with DSG (10 μM) for 48 to 72 hrs. a significant activation of whole cell currents was observed. As all the other cells, the holding potential was 0 m, which inactivated the voltage-gated Na^+ and Ca^++ channels. After addition of 200 μM cpt-cAMP to the bath solution, voltage steps from the holding potential to between -100 mV and 80 mV in 20 mV increments activated whole cell currents. In these experiments, the intracellular and extracellular solutions were designed to study only current flowing through Cl^- channels, since Cl^- is the only significant permeant ion in solution. Ca^++ and K^+ currents were minimized by 100 μM of extracellular Cd^++ and 20 mM of intracellular TEA respectively. Furthermore, the currents were ascertained to be Cl^- currents from change in the reversal potential which was shifted from 1.1±1.5 to 47.3±6.1 mV by reducing extracellular Cl^- from 150 mM to 20 mM.
It is highly unlikely that Ca^++ -activated Cl^- was recorded in these experiments because of the presence of 10 mM intracellular EGTA and 100 µM extracellular Cd^++. […] Special attention was paid to detect possible contribution of the outwardly rectifying Cl^- channel (ORCC) to the whole cell currents. Because of a possible upregulatory role of CFTR, ORCC can be activated in normal but not in CF airway epithelial cells (Hwang et al. (1989), supra.; Li et al. (1988), Nature 331: 358-360; Morris and Frizzel (1993); Am. J. Physiol.; Schwiebert et al. (1994), Am. J. Physiol.).

ΔF508-CFTR (IBE-1 cells) [2] = conditions: CFTR vs ORCC; Cliff and Frizzel, Schwiebert et al.; cited from earlier work
CFTR = conditions: Yang et al. (1997); cited from earlier work
ΔF508-CFTR = conditions: recombinant cells; Cheng et al. (1995); cited from earlier work
[3] = test system: ΔF508-CFTR (C127-ΔF508-low cells); assay: SPQ halide efflux assay, cAMP-stimulated Cl- channel activity, C127-ΔF508-low cells; type: cell-based; conditions: C127-ΔF508-low cells; for cAMP-stimulated change in SPQ fluorescence / Cl- channel activity, in words: DSG 10-100 μg/ml, sodium butyrate 5 mM 24 h, spermidine 5 μg/ml 72 h
Description: (§1) The cAMP-dependent CFTR Cl^- channel activity was assessed using the halide-sensitive fluorophore 6-methoxy-N-(3-sulfopropyl)-quinolinium (SPQ) essentially as described previously (Cheng et al., (1995), supra.; Marshall et al., supra.). Briefly, the cells were treated with different amounts of DSG for the times specified. At the end of the treatment period, the cells were loaded with SPQ by hypotonic shock for 4 min at room temperature. SPQ fluorescence initially was quenched by incubating the cells for up to 30 min in a NaI buffer (135 mM NaI, 2.4 mM K2 HPO4, 0.6 mM KH2 PO4, 1 mM MgSO4, 1 mM CaSO4, 10 mM dextrose, and 10 mM N-2 hydroxyethylpiperazine-N'2-ethanesulfonic acid, pH 7.4). After measuring the baseline fluorescence (Fo) for 2 min., the NaI solution was replaced with one containing 135 mM NaNO3, and fluorescence was measured for another 16 min. Forskolin (20 μM) and 3-isobutyl-1-methyl-xanthine (IBMX) (100 μM) were added 5 min after the anion substitution to increase intracellular levels of cAMP.
(§2) An increase in halide permeability is reflected by a more rapid increase in SPQ fluorescence. It is the rate of change rather than the absolute change in signal that is the important variable in evaluating anion permeability. Differences in absolute levels reflect quantitative differences between groups in SPQ loading, size of cells, or number of cells studied. The data are presented as means± SE of fluorescence at time t (Ft) minus the baseline fluorescence (Fo, the average fluorescence measured in the presence of I^- for 2 min. before ion substitution) and are representative of results obtained under each condition.
For each experiment, between 50 to 100 cells were examined on a given day and studies under each condition were repeated on at least two days. For each experiment, the responses were compared with those obtained with control or untreated cells. […] Under the conditions specified above, control cells were unresponsive to added cAMP agonists. There was a broad spectrum in the rate of change in SPQ fluorescence observed with responsive cells. Normally, cells were scored as responsive if they generated a minimum of a […] change in the rate of increase in SPQ fluorescence following stimulation with cAMP agonists. Because the response was heterogenous, the data shown are for the 10% of cells in each experiment showing the greatest response.
A bovine-papilloma virus based eukaryotic expression vector (pBPV-CFTR-ΔF508) containing the gene for ΔF508 CFTR and neomycin resistance were transfected into C127 cells. The C127 cells are murine mammary cells which were obtained from ATCC (#CRL 1616). The expression of the mutant ΔF508 protein and neomycin was driven using a metallothionein promoter. Following transfection, clonal cells resistant to G418 were isolated and cells expressing the mutant ΔF508 protein were subsequently identified using antibodies specific for CFTR (mAb-13-1). The cells expressing the mutant ΔF508 CFTR protein were maintained in Dulbecco's modified eagle media (DMEM) supplemented with glutamine and fetal calf serum.
C127-ΔF508-low (mouse mammary tumor) is a recombinant cell line stably transfected with the cDNA encoding the mutant ΔF508-CFTR (Cheng et al. (1995), supra.; Marshall et al. (1994), J. Biol. Chem. 269: 2987-2995). […] C127-mock is a cell line that has been stably transfected with the backbone of the expression vector used to generate C127-ΔF508-low (Cheng et al. (1995), supra.). LLCPK1 -ΔF508 (pig kidney epithelial) is a recombinant cell line stably expressing low levels of the mutant ΔF508-CFTR protein (Marshall et al., supra.). The details of the generation, characterization and routine propagation of these cell lines has been described (Cheng et al. (1995), supra.; Marshall et al., supra.).
Cells were treated with up to 100 μg/ml of DSG for up to 72 h. Concentrations of DSG >50 μg/ml were toxic to most of the cell types tested. […]

[4] = test system: ΔF508-CFTR (JME/CF15 cells); assay: SPQ assay, cAMP-stimulated Cl- channel activity, JME/CF15 cells; type: cell-based, human; conditions: 72 h
Description: as §1, §2
For each experiment, between 50 to 100 cells were examined on a given day and studies under each condition were repeated on at least two days. […] There was a broad spectrum in the rate of change in SPQ fluorescence observed with responsive cells. Normally, cells were scored as responsive if they generated a minimum of a […] change in the rate of increase in SPQ fluorescence following stimulation with cAMP agonists. […]

For O=C(O)c1ccccc1Nc1ccccc1 [DPC, diphenylamine carboxylic acid], the “reduction of whole cell currents” value (ΔF508-CFTR (IBE-1 cells) [1]) is given as 92±4% and the selectivity of inhibition (ΔF508-CFTR (IBE-1 cells) [2]) is given as “specifically inhibit CFTR but not ORCC”.

For O=c1c(-c2ccc(O)cc2)coc2cc(O)cc(O)c12 [genistein], the “activity of CFTR Cl channels at the cell surface” value (CFTR) is given as “enhance the activity of CFTR”.

For CCCC(=O)[O-].[Na+] [sodium butyrate], the “effect on ΔF508-CFTR expression / location, in words” value (ΔF508-CFTR) is given as “overexpression of ΔF508 in recombinant cells; also recorded: results in synthesis of detectable amounts of band C-CFTR; also recorded: capable of effecting the presence of ΔF508-CFTR at the plasma membrane”, the “cells generating a measurable response” value ([3]; SPQ, average of 5 experiments) is given as 90% and the “cAMP-stimulated change in SPQ fluorescence / Cl- channel activity, in words” value [3] is given as “generated cAMP-stimulated halide efflux”.

For NCCCCNCCCN [spermidine], the “cAMP-stimulated change in SPQ fluorescence / Cl- channel activity, in words” value [3] was “No measurable cAMP-stimulated Cl^- channel activity was detected” and the “cAMP-stimulated Cl- channel activity, in words” value [4] was “not replicated”.

For calyculin, the “activity of CFTR Cl channels at the cell surface” value (CFTR) is listed as “enhance the activity of CFTR”.
